Data reported in patent US20210361570A1, “IN SITU GELLING POLYSACCHARIDE-BASED NANOPARTICLE HYDROGEL COMPOSITIONS, AND METHODS OF USE THEREOF” (McMaster University, priority 2020, published 2021).

Tests used:
[1] = test system: Sprague-Dawley rats, MK-801 model of schizophrenia; assay: MK-801 schizophrenia model, social interaction behavioral testing; format: in vivo, rat
Method: Age-matched male Sprague-Dawley rats (250-300 g, Charles River Canada, St. Constant, QC, Canada) received care that complied with protocols approved by the Animal Research Ethics Board at McMaster University and the guidelines of the Canadian Council on Animal Care. Animals were housed individually in standard cages on a reverse 12 h light cycle. Upon arrival, animals were habituated to their holding room for 1 week, followed by a week of handling (touching and petting for at least 5 minutes each, every other day) prior to any testing. Animals were handled regularly throughout the duration of all experimentation (2-3 times per week outside of experiments) and housed in a room maintained at 22° C. with 50% humidity and access to food and water ad libitum. The animal masses at the end of the experiments were between 400-550 g.
For the in situ animal injections, all drugs were dissolved in artificial cerebrospinal fluid (aCSF) solution formulated in-lab comprised of 120 mM NaCl, 4.8 mM KCl, 1.2 mM KH2PO4, 1.2 mM MgSO4, 25 mM NaHCO3, 2.5 mM CaCl2), and 10 mM D-glucose. Further, PAOPA (with or without hydrogel formulation) was administered at concentration of 0.5 mg/kg intranasally, selected based on effective concentrations observed via dose-dependent intraperitoneal (IP) administrations. The PAOPA was added equally to both the CMCh and the SNP solutions and allowed to sit for 24 h to allow for any polymer-drug interactions to occur before gelation. All precursor solutions were passed through a 0.45 µm filter (VWR) to sterilize them prior to injection into a live animal. […]
To administer the payload for the five experimental groups, a single rat was removed from its cage and placed into a closed anesthesia box with transparent sides for proper observation. Aerosolized isoflurane (with oxygen) was passed into the box until the rat was determined to be anesthetized via foot pinching reflex test. […]
Rats were assessed for social interaction with and without MK-801 and drug/formulation administration. […]

[2] = test system: Sprague-Dawley rats, MK-801 model of schizophrenia; conditions: PAOPA 1 mg/kg IP, literature; cited from earlier work
[3] = test system: B16-F10 melanoma tumor; assay: In vivo anti-tumor test (relative tumor volume); set-up: species or system C57BL/6 mice; conditions: 5.0 mg/kg DOX tail vein every three days, 10-day period
Method: (§1) The antitumor effect of DOX, DOX-Clusters (control), and Dox-iClusters was evaluated by tracking the relative tumor volume (V/V0) after treatment with the nanocluster nanogels. C57BL/6 mice were injected intradermally with B16-F10 melanoma tumor cells, allowing the tumors to grow to ˜20 mm^3 by day 7 after the injections. The mice were treated by tail vein injection of 200 μL of PBS, DOX, DOX-iCluster and DOX-Cluster every three days (5.0 mg/kg of DOX for all formulations), after which both the tumor size and body weight were monitored regularly over a 10-day period.

[4] = Body weight in the in vivo anti-tumor test; set-up: species or system C57BL/6 mice; conditions: 5.0 mg/kg DOX tail vein every three days, ten days
Method: as §1

[5] = L-DOPA anti-oxidation in hydrogels (visual colour); format: physicochemical; conditions: 3 mg L-DOPA, MES pH 6 or PBS pH 7.4, 12 h at 37° C.
Method: 200 μL of 25 w/v % (DS 0.5) SNP-CHO or SNP-APBA was combined with 200 μL of CMCh (pH 7) to form a 400 μL bulk hydrogel in a 12 plate well. Gels were loaded with 3 mg of L-DOPA by suspending the powered drug into the aqueous SNP precursor before gelling. The gels were submerged in 3 mL of 0.1M MES (pH 6) buffer or 10 mM PBS (pH 7.4) buffer. Oxidation of L-DOPA was assessed visually, with the formation of dark yellow-brown and black precipitates indicating L-DOPA oxidation to its dopaquinone and dopachrome polymer forms, and assessed with respect to controls of L-DOPA at the same concentration in each of the respective buffers (without a hydrogel).

[6] = test system: C. elegans; assay: 6-OHDA Parkinsonian model, electrotaxis movement testing; format: in vivo; conditions: L-DOPA free or loaded in 25 w/v % hydrogels (DS=0.5)
Method: The stability of L-DOPA delivered using the SNP-CHO@CMCh or SNP-APBA@CMCh bulk hydrogels was assessed using an in vivo C. elegans assay. Wild-type late larval stage worms were exposed to 30 mM 6-OHDA in ascorbic acid for 1 hr to induce dopaminergic neurodegeneration. After 24 hours, worms were added to a 12-well plate in which each well contains 400 μL of SNP-CHO@CMCh or SNP-APBA@CMCh bulk hydrogel as well as E. coli (for food) to form a 3 mL liquid culture in which worms are continuously exposed to released L-DOPA.
Worms were sampled at various time points (0 h, 4 h, 8 h, 12 h, 24 h, 48 h) to assess movement. Motility changes, assessed based on the average speed of the worms in mm/s (minimum n=20 worms per sample and time point tested), were measured using an in-house voltage-induced electrotaxis microfluidic assay developed to quantify drug induced dopaminergic neuron signal-mediated movement. In addition to the test sample (Group 1), control groups of no 6-OHDA, no hydrogel (Group 2, untreated control), 6-OHDA, no hydrogel (Group 3, drug control); 6-OHDA, blank hydrogel (Group 4, material control); and 6-OHDA, drug(s) without hydrogel (Group 5, delivery vehicle control) were assessed (minimum n=20 worms/group). L-DOPA was loaded in both SNP-CHO@CMCh and SNP-APBA@CMCh 25 w/v % hydrogels (DS=0.5) at 3 or 9 […].

In the case of NC(=O)CN1CC[C@@H](NC(=O)[C@@H]2CCCN2)C1=O [PAOPA], the social interaction deficits ([1]; 0.5 mg/kg IN 30 minutes before MK-801, assessed 30 minutes post-MK-801) is reported as “expected attenuation of social interaction deficits”, the social interaction deficits ([1]; 0.5 mg/kg IN, MK-801 challenge 24 hours later) is reported as “the benefits of PAOPA were no longer observed” and the “total social interaction time relative to untreated control” value ([1]; no MK-801, intranasal, PAOPA 0.5 mg/kg or unloaded hydrogel) is reported as “neither increased nor decreased total interaction times”. For the same compound, the social interaction time [2] was “did not affect social interaction time”.
In the case of COc1cccc2c1C(=O)c1c(O)c3c(c(O)c1C2=O)C[C@@](O)(C(=O)CO)C[C@@H]3O[C@H]1C[C@H](N)[C@H](O)[C@H](C)O1.Cl [free DOX, doxorubicin hydrochloride], the “relative tumor volume (V/V0)” value [3] is reported as 24 × volume increase and the body weight [4] is reported as “significantly reduced body weight”.
For N[C@@H](Cc1ccc(O)c(O)c1)C(=O)O [L-DOPA, 3,4-dihydroxy-L-phenylalanine], the “L-DOPA oxidation (colour)” value [5] was “became black with oxidation” and the “duration of improved swimming speed / motility vs 6-OHDA control” value [6] was 4 h.
